Earlier results in patent US20240280563A1, “SYSTEMS AND METHODS FOR ION CHANNEL KINETICS ANALYSIS IN CLUSTERS OF ION CHANNELS” (Ohio State Innovation Foundation, priority 2023, published 2024).

System: NaVs
Conditions: disruption of cooperativity with difopein; this and previous studies (Clatot et al. 2017; Zheng and Deschênes 2023)

In the case of difopein, the “effect on whole cell sodium current density” value is listed as “does not change significantly”.
